From ChEMBL document CHEMBL1201862, “PubChem BioAssay data set” (2004)
Active and inactive are the calls of the source.

Legend:
[1] = target: Peroxisome proliferator-activated receptor gamma/Nuclear receptor coactivator 3 (Homo sapiens, UniProt P37231); format: functional;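 further: agonist potency for raising coactivator recruitment to the receptor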
[2] = target: Peroxisome proliferator-activated receptor gamma/Nuclear receptor coactivator 1 (Homo sapiens, UniProt P37231); format: functional;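 further: agonist potency as compounds enhance coactivator SRC-1 recruitment to PPARgamma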
[3] = target: Peroxisome proliferator-activated receptor gamma/Nuclear receptor coactivator 2 (Homo sapiens, UniProt P37231); format: functional;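 further: agonist potency for raising coactivator recruitment to the receptor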
[4] = HEK-293T cell viability reduction – luminescence, B-cell screen hits, cytotoxicity control for BCR NF-kB inhibitor project, dose response (AID 489021); format: functional, cell-based;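 further: HEK-293T cells carrying an NF-kB luciferase reporter; cells exposed to compound for about 14 hours before viability readout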
[5] = HPDE-C7 pancreatic duct cell viability loss – fluorescence, HTS (AID 430); format: functional, cell-based; details: Homo sapiens
Streptococcus = test: GAS UMAA2166 growth inhibition – luminescence, BacTiterGlo, counter-screen for streptokinase expression inhibitor project, dose response (AID 1915); format: functional, organism-based;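 further: potency for reduction of bacterial viability or growth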
[6] = target: T1, Neuropeptide Y receptor type 2 (Homo sapiens, UniProt P49146); test: IC50 for human NPY-Y2 blockade – cell-based, counter-screen for NPY-Y1 antagonist project, dose response (AID 1278); format: functional
T1 sequence (P49146 whole entry): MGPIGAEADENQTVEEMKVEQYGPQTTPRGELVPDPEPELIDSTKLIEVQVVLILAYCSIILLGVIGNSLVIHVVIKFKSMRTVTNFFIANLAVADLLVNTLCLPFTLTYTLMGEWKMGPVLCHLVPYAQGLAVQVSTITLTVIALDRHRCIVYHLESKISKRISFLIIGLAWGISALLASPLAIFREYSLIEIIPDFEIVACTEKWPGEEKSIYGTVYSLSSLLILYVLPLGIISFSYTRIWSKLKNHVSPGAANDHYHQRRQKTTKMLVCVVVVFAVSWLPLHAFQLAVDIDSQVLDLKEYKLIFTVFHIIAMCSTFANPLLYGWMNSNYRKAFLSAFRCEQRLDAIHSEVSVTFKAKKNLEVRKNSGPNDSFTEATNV

[7] = tested on: Streptococcus sp. 'group A'; test: Streptococcus pyogenes SK(-)GAS viability under kanamycin – luminescence, BacTiterGlo, confirmation, counter-screen for streptokinase expression inhibitor project, dose response (AID 1900); format: functional, organism-based
[8] = viability loss of HPDE-C7K cells – cell-based, fluorescence, HTS, primary screen (AID 431); format: functional; details: Homo sapiens
Coagulation factor XII = target: T2, Coagulation factor XII (Homo sapiens, UniProt P00748); format: functional;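 further: activated factor XIIa alpha cleaving a fluorogenic AMC peptide substrate; inhibitor potency from loss of enzyme activity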
T2 sequence (P00748 whole entry): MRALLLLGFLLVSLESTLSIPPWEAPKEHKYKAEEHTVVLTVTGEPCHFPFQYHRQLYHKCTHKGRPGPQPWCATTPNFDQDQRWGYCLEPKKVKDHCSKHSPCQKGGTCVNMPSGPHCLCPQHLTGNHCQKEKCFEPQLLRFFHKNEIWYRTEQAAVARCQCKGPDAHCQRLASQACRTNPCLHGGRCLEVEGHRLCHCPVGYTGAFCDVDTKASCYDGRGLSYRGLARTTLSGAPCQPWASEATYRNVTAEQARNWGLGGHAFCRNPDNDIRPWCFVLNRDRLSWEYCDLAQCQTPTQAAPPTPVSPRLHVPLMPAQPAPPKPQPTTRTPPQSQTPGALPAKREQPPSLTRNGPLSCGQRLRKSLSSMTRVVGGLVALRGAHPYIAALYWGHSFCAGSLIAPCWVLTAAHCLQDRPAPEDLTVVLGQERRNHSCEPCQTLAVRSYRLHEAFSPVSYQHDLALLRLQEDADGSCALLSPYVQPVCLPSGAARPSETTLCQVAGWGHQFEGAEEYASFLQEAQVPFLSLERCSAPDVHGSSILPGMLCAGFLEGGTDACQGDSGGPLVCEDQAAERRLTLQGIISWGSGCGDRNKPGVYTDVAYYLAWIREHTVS

[9] = target: T3, Neuropeptide Y receptor type 1 (Homo sapiens, UniProt P25929); test: IC50 of human NPY-Y1 blockers – cell-based, dose response (AID 1277); format: functional
T3 sequence (P25929 whole entry): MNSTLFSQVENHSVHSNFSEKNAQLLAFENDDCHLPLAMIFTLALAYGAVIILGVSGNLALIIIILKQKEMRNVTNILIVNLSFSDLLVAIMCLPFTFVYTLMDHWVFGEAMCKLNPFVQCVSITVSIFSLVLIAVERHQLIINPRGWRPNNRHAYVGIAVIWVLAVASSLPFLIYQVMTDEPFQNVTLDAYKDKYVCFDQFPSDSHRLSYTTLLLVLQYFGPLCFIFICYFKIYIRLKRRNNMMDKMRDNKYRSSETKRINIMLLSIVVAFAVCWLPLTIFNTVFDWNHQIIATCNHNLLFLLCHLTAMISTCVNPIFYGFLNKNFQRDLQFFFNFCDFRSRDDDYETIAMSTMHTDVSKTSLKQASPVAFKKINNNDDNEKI

Streptokinase A = target: T4, Streptokinase A (Streptococcus pyogenes serotype M1, UniProt P10520); test: viability-normalized secreted streptokinase activity reduction – plasminogen activation absorbance, OD405, dose response (AID 1914); format: functional, Streptococcus pyogenes M1 GAS;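 further: secreted streptokinase activity via plasminogen activation per viability signal from cell pellet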
T4 sequence (P10520 whole entry): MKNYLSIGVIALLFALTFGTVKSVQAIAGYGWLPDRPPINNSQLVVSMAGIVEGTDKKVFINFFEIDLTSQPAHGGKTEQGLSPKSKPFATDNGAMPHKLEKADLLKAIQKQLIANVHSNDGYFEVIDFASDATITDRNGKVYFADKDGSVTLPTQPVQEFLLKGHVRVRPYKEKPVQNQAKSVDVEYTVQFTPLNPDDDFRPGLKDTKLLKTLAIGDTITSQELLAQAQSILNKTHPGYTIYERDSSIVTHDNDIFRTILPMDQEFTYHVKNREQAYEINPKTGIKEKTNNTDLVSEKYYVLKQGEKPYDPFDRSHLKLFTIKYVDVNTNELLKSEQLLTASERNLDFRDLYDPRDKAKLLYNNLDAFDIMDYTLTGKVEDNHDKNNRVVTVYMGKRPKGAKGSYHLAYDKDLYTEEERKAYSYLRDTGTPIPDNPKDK

[10] = loss of viability in HepG2 cells – cell-based, CellTiter-Glo, cherry-picked, cytotoxicity control for Shn3 inhibitor project, dose response (AID 624134); format: functional
[11] = viability of uninfected HEp-2 cells – cell-based, HTS, cytotoxicity control for RSV inhibitor project, dose response (AID 2410); format: functional; details: human respiratory syncytial virus
[12] = reduction of Shn3 3'UTR-driven luciferase in osteoblasts – cell-based, Clone20 osteoblasts, firefly luciferase, cherry-picked, dose response (AID 624132); format: functional;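 further: firefly luciferase luminescence from reporter carrying the Shn3 3'UTR in osteoblasts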
[13] = non-specific 3'UTR reporter inhibition in Clone20-Shn3RL – cell-based, Renilla luciferase, cherry-picked, counter-screen for Shn3 inhibitor project, dose response (AID 624133); format: functional
HT-1080 = test: HT1080 cell viability loss – fluorescence readout (AID 620); format: functional, cell-based; details: Homo sapiens
[14] = target: Luciferin 4-monooxygenase (Photinus pyralis, UniProt P08659); test: Counter Screen for Luciferase-based Assay Positives. [Related pubchem assays: 620, 618, 411 ]
HEK293 = test: EBV LMP1 TES2 canonical NF-kB signalling blockers – cell-based, HEK293, luciferase, cherry-pick, dose response (AID 588343); format: functional; details: Homo sapiens
[15] = viability of HCT116 lacking mutant beta-catenin – cell-based, human colon tumor, dose response (AID 1045); format: functional;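 further: HCT116 colon tumor cells with beta catenin knocked out; cells exposed to compound for 60 hours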
[16] = viability of PTEN-deleted HCT116 cells – cell-based, HCT116 PTEN knockout, dose response (AID 1047); format: functional;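 further: HCT116 colon tumor cells with PTEN knocked out; cells exposed to compound for 60 hours before readout; potency for loss of cell viability measured by luminescence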
cells = format: functional
Protein RecA = target: T5, Protein RecA (Mycobacterium tuberculosis, UniProt P9WHJ3); test: Fluorescence Cell-Free Homogeneous Dose Retest to Identify Inhibitors of RecA-Intein Splicing Activity. [Related pubchem assays (depositor defined):AID2097, AID2223, AID489010, AID492950]; format: functional
T5 sequence (P9WHJ3 whole entry): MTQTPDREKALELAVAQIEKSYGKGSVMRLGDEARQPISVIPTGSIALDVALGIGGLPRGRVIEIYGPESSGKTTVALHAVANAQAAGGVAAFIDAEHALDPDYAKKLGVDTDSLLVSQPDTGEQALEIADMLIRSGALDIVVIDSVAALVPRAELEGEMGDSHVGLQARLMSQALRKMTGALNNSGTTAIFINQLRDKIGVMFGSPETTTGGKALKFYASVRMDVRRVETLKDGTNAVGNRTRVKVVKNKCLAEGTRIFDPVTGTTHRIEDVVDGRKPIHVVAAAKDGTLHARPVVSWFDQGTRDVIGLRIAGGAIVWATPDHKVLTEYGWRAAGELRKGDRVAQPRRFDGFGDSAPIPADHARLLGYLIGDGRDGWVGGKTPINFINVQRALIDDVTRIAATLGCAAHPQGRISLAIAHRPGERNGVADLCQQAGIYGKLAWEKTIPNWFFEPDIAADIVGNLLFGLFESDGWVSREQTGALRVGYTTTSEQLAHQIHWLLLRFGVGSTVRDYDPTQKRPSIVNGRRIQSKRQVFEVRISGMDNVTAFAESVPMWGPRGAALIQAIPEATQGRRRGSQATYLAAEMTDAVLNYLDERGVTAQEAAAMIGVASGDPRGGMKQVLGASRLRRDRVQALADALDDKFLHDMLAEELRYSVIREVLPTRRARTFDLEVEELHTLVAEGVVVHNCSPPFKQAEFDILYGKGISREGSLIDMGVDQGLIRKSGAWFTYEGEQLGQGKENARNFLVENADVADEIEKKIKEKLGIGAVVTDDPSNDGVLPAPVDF

[17] = target: T6, Replicative DNA helicase DnaB (Mycobacterium tuberculosis, UniProt P9WMR3); test: DnaB intein splicing inhibitors, dose response, biochemical, cell-free fluorescence (AID 449749); format: functional
T6 sequence (P9WMR3 whole entry): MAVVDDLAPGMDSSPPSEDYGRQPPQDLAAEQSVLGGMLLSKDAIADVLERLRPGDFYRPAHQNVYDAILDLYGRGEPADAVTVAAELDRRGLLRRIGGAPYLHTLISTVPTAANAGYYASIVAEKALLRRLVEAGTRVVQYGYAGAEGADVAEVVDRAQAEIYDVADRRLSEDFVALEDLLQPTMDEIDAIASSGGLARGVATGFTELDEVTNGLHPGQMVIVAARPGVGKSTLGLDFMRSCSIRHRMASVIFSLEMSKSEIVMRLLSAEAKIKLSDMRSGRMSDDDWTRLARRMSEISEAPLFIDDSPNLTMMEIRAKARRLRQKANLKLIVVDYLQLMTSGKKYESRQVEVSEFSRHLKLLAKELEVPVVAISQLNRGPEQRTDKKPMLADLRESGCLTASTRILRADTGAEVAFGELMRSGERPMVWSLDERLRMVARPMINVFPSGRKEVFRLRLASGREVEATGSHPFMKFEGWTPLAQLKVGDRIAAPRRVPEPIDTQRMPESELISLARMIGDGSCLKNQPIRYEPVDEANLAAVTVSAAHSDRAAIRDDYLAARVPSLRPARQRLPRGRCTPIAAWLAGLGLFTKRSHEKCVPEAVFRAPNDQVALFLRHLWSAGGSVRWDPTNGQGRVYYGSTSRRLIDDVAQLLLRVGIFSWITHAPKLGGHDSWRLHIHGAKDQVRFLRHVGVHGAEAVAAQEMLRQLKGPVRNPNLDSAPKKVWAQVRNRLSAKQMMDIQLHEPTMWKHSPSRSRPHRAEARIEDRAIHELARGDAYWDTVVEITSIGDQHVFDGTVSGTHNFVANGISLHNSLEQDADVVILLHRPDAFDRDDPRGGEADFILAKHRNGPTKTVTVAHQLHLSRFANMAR

[18] = Luminescence Cell-Based Dose Retest to Confirm Inhibitors of Cancer Stem Cells. [Related pubchem assays (depositor defined):AID2717, AID2721]; format: functional; details: Homo sapiens

Chain of Peroxisome proliferator-activated receptor gamma/Nuclear receptor coactivator 3 (P37231 whole entry): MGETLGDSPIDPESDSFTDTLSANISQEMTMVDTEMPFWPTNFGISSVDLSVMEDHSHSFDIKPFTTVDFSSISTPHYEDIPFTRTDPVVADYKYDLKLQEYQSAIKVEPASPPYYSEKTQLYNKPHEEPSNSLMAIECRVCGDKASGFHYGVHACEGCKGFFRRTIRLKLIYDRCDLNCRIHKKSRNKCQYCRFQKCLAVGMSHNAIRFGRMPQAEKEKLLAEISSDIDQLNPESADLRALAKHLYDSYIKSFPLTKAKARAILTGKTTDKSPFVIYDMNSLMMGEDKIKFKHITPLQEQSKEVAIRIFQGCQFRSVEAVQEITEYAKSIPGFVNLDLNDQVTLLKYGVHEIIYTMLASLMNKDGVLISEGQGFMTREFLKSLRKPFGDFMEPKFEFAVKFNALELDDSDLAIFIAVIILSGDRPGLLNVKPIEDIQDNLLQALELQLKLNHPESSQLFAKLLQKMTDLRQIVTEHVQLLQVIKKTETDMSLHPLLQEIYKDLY
Chain of Peroxisome proliferator-activated receptor gamma/Nuclear receptor coactivator 3 (Q9Y6Q9 whole entry, further chain): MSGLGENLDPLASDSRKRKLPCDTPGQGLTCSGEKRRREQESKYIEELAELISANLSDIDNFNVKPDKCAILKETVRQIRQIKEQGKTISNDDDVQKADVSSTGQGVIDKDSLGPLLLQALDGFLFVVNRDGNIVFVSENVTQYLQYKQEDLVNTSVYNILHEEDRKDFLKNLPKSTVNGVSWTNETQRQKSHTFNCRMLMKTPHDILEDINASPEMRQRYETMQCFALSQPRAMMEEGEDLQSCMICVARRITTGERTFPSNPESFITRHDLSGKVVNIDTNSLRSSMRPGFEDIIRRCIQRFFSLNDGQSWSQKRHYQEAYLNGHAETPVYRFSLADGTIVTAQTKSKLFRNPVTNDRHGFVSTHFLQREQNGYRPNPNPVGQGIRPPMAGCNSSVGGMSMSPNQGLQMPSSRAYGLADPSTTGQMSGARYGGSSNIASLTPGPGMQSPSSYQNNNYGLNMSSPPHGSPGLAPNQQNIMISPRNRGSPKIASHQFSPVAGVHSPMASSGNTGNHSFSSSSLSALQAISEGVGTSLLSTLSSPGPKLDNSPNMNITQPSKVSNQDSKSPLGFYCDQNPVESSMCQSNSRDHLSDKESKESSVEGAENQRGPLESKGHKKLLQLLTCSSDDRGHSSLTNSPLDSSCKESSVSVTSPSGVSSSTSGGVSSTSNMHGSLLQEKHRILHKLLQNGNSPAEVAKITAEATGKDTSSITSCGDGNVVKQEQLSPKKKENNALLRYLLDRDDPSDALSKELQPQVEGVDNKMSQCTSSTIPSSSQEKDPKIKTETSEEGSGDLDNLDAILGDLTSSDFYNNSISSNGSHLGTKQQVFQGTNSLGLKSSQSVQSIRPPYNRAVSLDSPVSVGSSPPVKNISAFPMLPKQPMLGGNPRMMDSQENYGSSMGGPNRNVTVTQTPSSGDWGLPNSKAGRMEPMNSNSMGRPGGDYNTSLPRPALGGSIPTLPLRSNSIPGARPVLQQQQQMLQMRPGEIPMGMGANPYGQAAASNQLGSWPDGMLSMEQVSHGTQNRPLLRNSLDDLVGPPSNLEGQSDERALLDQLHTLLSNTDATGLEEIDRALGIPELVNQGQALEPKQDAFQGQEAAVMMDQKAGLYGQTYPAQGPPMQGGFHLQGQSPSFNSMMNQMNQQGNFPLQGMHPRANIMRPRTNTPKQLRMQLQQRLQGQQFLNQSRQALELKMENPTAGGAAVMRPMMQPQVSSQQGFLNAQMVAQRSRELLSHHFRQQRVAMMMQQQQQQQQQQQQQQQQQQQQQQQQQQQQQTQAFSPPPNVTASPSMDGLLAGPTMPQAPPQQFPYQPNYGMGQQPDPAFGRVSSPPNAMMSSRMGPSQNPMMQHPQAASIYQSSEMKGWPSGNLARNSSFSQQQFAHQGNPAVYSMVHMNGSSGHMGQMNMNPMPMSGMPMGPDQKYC
Chain of Peroxisome proliferator-activated receptor gamma/Nuclear receptor coactivator 2 (P37231 whole entry): as the sequence (P37231 whole entry) above
Chain of Peroxisome proliferator-activated receptor gamma/Nuclear receptor coactivator 2 (Q15596 whole entry, further chain): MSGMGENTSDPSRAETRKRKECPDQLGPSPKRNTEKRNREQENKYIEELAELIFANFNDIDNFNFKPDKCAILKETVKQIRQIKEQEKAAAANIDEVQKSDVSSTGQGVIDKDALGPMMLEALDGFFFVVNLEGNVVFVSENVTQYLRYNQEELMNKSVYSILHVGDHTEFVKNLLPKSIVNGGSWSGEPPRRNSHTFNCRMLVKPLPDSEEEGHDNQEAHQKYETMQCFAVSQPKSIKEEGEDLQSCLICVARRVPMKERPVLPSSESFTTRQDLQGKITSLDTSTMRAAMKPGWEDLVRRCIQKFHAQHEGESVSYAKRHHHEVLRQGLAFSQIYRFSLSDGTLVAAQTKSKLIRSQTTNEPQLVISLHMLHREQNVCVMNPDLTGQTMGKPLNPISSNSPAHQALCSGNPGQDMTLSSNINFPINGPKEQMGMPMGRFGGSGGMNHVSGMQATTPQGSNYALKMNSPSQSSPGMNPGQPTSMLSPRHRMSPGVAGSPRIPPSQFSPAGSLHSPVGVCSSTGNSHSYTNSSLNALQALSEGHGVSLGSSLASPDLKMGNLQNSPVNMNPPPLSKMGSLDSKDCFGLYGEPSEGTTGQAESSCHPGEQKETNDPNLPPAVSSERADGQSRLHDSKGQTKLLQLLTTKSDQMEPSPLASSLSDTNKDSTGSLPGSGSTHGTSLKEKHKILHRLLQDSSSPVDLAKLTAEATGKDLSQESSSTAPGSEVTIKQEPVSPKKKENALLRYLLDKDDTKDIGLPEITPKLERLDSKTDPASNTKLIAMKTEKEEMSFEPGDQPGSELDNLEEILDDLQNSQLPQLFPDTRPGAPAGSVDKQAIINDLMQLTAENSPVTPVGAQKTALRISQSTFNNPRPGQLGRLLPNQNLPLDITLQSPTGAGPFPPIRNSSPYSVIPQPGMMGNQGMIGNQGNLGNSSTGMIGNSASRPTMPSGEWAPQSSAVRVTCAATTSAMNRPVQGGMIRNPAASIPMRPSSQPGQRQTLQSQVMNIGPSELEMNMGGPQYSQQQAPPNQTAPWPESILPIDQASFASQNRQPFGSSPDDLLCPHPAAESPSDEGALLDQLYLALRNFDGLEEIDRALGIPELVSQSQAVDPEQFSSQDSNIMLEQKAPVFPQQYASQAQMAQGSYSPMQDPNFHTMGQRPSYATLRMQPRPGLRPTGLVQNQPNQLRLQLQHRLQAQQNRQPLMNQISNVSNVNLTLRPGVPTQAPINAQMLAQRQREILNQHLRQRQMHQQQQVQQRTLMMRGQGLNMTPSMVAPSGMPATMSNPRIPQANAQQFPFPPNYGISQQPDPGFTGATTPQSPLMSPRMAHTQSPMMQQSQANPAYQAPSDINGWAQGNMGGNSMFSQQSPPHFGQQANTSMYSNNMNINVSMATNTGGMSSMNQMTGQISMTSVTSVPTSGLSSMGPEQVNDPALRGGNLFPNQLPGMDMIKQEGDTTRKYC
Chain of Luciferin 4-monooxygenase (P08659 whole entry): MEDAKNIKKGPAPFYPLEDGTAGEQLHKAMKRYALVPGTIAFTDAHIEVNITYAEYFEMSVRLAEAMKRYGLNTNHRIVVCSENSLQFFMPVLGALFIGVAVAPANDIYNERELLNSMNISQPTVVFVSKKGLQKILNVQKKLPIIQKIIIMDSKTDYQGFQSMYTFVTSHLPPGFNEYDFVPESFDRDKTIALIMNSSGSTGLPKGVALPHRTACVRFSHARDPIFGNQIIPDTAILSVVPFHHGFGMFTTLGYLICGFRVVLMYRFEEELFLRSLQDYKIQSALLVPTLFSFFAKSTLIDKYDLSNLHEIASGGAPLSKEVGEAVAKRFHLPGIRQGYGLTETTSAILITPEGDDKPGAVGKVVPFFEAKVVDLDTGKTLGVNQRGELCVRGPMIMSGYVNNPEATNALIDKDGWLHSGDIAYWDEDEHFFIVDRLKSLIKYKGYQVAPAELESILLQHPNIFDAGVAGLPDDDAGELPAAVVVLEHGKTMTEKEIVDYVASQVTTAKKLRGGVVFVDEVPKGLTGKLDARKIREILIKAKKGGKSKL

Structure (SMILES): CS(=O)(=O)N(CC(=O)NCc1ccncc1)Cc1ccc(Cl)cc1
- EC50 [1]: > 79.4 µM (not active)
- EC50 [2]: > 79.4 µM (not active)
- EC50 [3]: > 79.4 µM (not active)

Structure (SMILES): CC(=O)NC1=NC(=O)/C(=C/c2cc(C)n(-c3ccc(NC(C)=O)cc3)c2C)S1
- EC50 [1]: > 79.4 µM (not active)
- EC50 [2]: > 79.4 µM (not active)
- EC50 [3]: > 79.4 µM (not active)

Structure (SMILES): CCCCCC/C=C/c1ccc(OC)c([C@H]2[C@H]3C=CC[C@@H](C)[C@@H]3C(=O)N2Cc2ccccc2)c1
- IC50 [4]: > 80 µM (inactive)

Structure (SMILES): CC(NC(=O)Nc1nnc(C(F)(F)F)s1)(C(F)(F)F)C(F)(F)F
- EC50 [5]: 8.76 µM (active)
- EC50 (Streptococcus): 7.84 µM (active)
- IC50 [6]: > 35 µM (not active)
- EC50 [7]: 3.54 µM (active)
- EC50 [8]: 14.4 µM (active)
- IC50 (Coagulation factor XII): > 50 µM (inactive)
- IC50 [9]: > 35 µM (not active)
- EC50 (Streptokinase A): > 150 µM (not active)

Structure (SMILES): CC(C)(C)n1nnnc1C(c1ccc(C(F)(F)F)cc1)N(Cc1ccccc1)Cc1ccco1 (configuration not stated)
- AC50 [10]: 44.1 µM (active)
- CC50 [11]: 9.91 µM (active)
- IC50 [6]: > 35 µM (not active)
- IC50 [9]: > 35 µM (not active)
- AC50 [12]: 4.74 µM (active)
- AC50 [13]: 6.74 µM (active)

Structure (SMILES): O=C(CN1C(=O)c2ccccc2S1(=O)=O)c1ccccc1
- EC50 (HT-1080): > 50 µM (not active)
- EC50 [14]: > 100 µM (not active)
- AC50 (HEK293): 1.36 µM (active)

Structure (SMILES): O=C(Nc1ccc(NC(=O)c2ccco2)nc1)c1ccccn1
- EC50 (HT-1080): > 50 µM (not active)
- EC50 [14]: 9.44 µM (active)

Structure (SMILES): Cc1n[nH]c2c1C(c1ccc(-c3ccc(Cl)cc3)o1)C(C#N)=C(N)O2 (configuration not stated)
- EC50 [1]: > 79.4 µM (not active)
- EC50 [15]: 9.79 µM (active)
- EC50 [2]: > 79.4 µM (not active)
- EC50 [16]: 10.6 µM (active)
- IC50 (cells): 39.7 µM (active)
- EC50 (Protein RecA): 28.6 µM (active)
- AC50 [17]: 41.8 µM (active)
- AC50 [18]: 6.86 µM (active)
- EC50 [3]: > 79.4 µM (not active)

Structure (SMILES): O=C(C1CCC1)N1CCN(S(=O)(=O)c2ccc([N+](=O)[O-])cc2)CC1
- IC50 [4]: > 80 µM (inactive)

Structure (SMILES): COc1ccc(/C=N\NC(=O)c2sccc2C)cc1Cn1nc(C)cc1C
- IC50 [4]: > 80 µM (inactive)
